Experimental data: patent US12162861B2, “Dopamine D3 receptor selective antagonists/partial agonists; method of making; and use thereof” (THE UNITED STATES OF AMERICA, AS REPRESENTED BY THE …, priority 2016, dated 2024)
Entries after “also recorded” stand apart in the source; their conditions may differ.

Experiments:
[1] = tested on: Long-Evans rats; test: Oxycodone self-administration in rats; assay type: in vivo, rat; conditions: for oxycodone self-administration (oxycodone taking): FR1, 5-25 mg/kg i.p., FIG. 3A
Experimental: MATERIALS AND METHODS: Male Long-Evans rats (Charles-River, Raleigh, N.C.) were used. […] All the experimental procedures were consistent with the “Principles of Laboratory Animal Care” published by National Institutes of Health (NIH publication 86-23, 1996) and were approved by the NIDA Animal Care and Use Committee.
Surgery: Rats (300-350 g) used for oxycodone self-administration were first implanted with an intravenous catheter. They were anaesthetized with pentobarbital (30 mg/kg i.p.) supplemented with chloral hydrate (140 mg/kg, i.p.). A small incision was next made to the right of the midline of the neck and the external jugular vein was externalized and an i.v. catheter, made of microrenathane (Braintree Scientific Inc., Braintree, MA, USA) was inserted with its tip reaching right atrium. The catheter was secured to the vein with silk suture and the other end fed subcutaneously around the back of the neck to exit near the back of the skull. The end was slipped over a bent 24-gauge stainless steel cannula (Plastic One Inc., Roanoke, VA, USA) with a threaded head used to secure a dummy cannula and, during experimentation, an infusion line. The catheter and the guide cannula were then secured to the skull with four stainless steel screws threaded into the skull and dental cement and the wound was sutured.
After surgery, the catheters were flushed daily with a gentamicin-heparin-saline solution (30 IU/ml heparin; ICN Biochemicals, Cleveland, OH, USA) as precaution against catheter clogging and infection. The animals were allowed to recover for at least 5 days before the behavioral training started.
Self-administration apparatus and oxycodone self-administration training: Rats in 3 experimental tests were first trained to self-administer oxycodone. The self-administration apparatus and procedures have been described previously (Xi et al., 2004, 2005). […] This infusion time was also served as a timeout period during which the light-tone cue was kept activated and animal' responses on the active lever were recorded but had no scheduled consequence. […]

[2] = tested on: rats; test: Naloxone-precipitated conditioned place aversion in chronic oxycodone treated rats; assay type: in vivo, rat; conditions: chronic oxycodone-treated rats, 5, 15 mg/kg, 1 hour prior to naloxone, FIG. 6
Description: The place-conditioning apparatus (Med Associates, St Albans, VT) consisted of two compartments (21×28 cm^2) linked by a gray connecting area (21×12.5 cm^2); a sliding door separated each compartment from the connecting area. The two end compartments differed in wall color (black vs white), floor type (grid vs net), and illumination; preference for the end compartments was balanced by using weaker illumination in the reflective (and normally less-preferred) white compartment and stronger illumination in the non-reflective black compartment. The paradigm was further ‘balanced’ by associating the training injections with the white side in half the animals and with the black side in the remaining animals.
The CPA procedures in this study were similar to those described by others (Azar et al., 2003; Olmstead and Burns 2005; 2012). Briefly, one day before drug treatments started, rats (200-250 g) were randomly divided into 6 groups and were allowed to explore their assigned conditioning apparatus for 15 min (preconditioning). […] CPA score was calculated as animals' time spent in drug-paired minus saline-paired compartments, Oxycodone HCl and naloxone HCl were purchased from Sigma Chemical Co. (Saint Louis, MO, USA) and were dissolved in physiological saline.

[3] = biological target: opiate kappa receptor (Homo sapiens, UniProt P41145); test: Binding to opiate kappa receptor
Chain of opiate kappa receptor (P41145 whole entry): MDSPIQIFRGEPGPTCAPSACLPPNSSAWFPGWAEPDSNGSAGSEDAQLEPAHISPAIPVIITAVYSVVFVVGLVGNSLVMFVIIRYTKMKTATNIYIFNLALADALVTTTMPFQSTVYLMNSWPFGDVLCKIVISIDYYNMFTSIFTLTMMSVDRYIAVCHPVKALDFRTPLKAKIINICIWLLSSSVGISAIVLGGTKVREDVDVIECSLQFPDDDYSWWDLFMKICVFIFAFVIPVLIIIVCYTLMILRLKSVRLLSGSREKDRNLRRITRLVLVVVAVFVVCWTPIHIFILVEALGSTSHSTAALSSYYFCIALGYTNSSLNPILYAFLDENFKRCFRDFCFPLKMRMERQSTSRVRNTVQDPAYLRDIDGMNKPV

## CCc1cc(Cl)c(OC)c(N2CCN(CC(O)CCNC(=O)c3cc4ccccc4[nH]3)CC2)c1 (racemic) [Compound 29, N-(4-(4-(3-chloro-5-ethyl-2-methoxyphenyl)piperazin-1-yl)-3-hydroxybutyl)-1H-indole-2-carboxamide]
[1]
  oxycodone self-administration (oxycodone taking): attenuated self-administration at 15 and 25 mg/kg
[1]; listed as (±)-29
  oxycodone self-administration (oxycodone taking): attenuating effects
[1]; pretreatment 5-15 mg/kg i.p., oxycodone 0.05 mg/kg/infusion, effect at 15 mg/kg
  acquisition of oxycodone self-administration, number of infusions: significantly lower number of infusions of oxycodone
[2]
  naloxone-precipitated conditioned place aversion: inhibits naloxone-precipitated conditioned place aversion; also recorded: significantly attenuated naloxone-precipitated conditioned place aversion
[2]; listed as (±)-29
  naloxone-precipitated conditioned place aversion: inhibition of naloxone-precipitated conditioned place aversion
[3]
  binding to opiate kappa receptor: does not bind
